# Test results reported in ChEMBL document CHEMBL6092164, “Rational design, synthesis, and biophysical characterization of a peptidic MDM2-MDM4 interaction inhibitor” (Bioorg Med Chem, 2024).
# pKd: −log10 of the molar value.
# Target: E3 ubiquitin-protein ligase Mdm2 (Homo sapiens, UniProt Q00987)
# Experiment: Binding affinity to RED dye fluorescently labelled full length human recombinant GST-tagged MDM2 expressed in Escherichia coli BL21 cells assessed as dissociation constant incubated for 60 mins in dark by Microscale Thermophoresis assay
# Sequence of E3 ubiquitin-protein ligase Mdm2 (Q00987 whole entry): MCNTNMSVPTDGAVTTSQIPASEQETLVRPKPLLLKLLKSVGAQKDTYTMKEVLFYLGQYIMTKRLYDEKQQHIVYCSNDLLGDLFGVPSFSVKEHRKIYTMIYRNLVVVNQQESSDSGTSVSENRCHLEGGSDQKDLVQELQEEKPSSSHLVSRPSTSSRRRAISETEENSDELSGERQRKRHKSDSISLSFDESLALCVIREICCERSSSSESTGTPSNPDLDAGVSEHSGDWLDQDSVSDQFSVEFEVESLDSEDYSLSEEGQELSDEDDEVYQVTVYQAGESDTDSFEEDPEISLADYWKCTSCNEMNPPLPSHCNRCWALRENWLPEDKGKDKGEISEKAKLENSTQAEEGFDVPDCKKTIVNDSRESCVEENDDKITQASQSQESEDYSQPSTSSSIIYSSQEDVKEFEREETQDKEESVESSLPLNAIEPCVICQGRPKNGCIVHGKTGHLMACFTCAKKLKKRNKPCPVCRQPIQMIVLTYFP
row,pKd,Substance
1,4.72,H-KVFIA-OH
2,< 3.00,H-VAIKF-OH
